The nature of the experiment: ORAC value (Oxygen Radical Absorbing Capacity). The settings on record: ratio to other antioxidants; no test described.

Take `CCN(CC)CCn1c(=O)c(Cc2ccc(OC)cc2)nc2ccccc21` [Caroverin, 1-(2-Diethylaminoethyl)-3-(p-methoxy-benzyl)-1,2-dihydrochinoxalin-2-on]: the “ORAC-Wert, höher gegenüber allen anderen bekannten Antioxidantien wie Vitamin C, E oder Glutathion” value is reported as at most 1000 fach.

Values taken from EP2522350A1, “Use of the active ingredient combination of a 1-diethylaminoethyl-3-chinoxalin-2-on derivative and an oxysterol for breaking resistance in the treatment of cancer and strengthening the immune system against cancer, bacterial and viral diseases, autoimmune diseases, increased stress and …” (Immunopharm AG, priority 2011, dated 2012).
